Measurements as given in US11013709B2, “Highly purified eicosapentaenoic acid, as free fatty acid, reduces fecal calprotectin levels and prevents clinical relapse in ulcerative colitis patients” (S.L.A. PHARMA AG, priority 2017, dated 2021).

Columns and labels:
[1] = cited from earlier work
[2] = Safety and tolerability in placebo-controlled trial of UC patients; format: in vivo, human; details: 60 patients with UC treated for 6 months
Experimental: (§1) The present invention provides for a double-blind, randomized, placebo-controlled study with UC patients with fecal calprotectin level ≥150 μg/g and in stable therapy for at least the 3 previous months. Each subject, receives either 2 grams daily of EPA-FFA (2 dosages of 500 mg sustained-release capsules, twice a day) or placebo (2 dosages of 500 mg sustained-release capsules of capric and caprylic acids, twice daily) for a 6 month period. At baseline, the patients undergo a total colonoscopy. Fecal calprotectin levels, clinical and laboratory assessments are performed at baseline, 3 and 6 months or at the time of clinical relapse, which has been defined as the occurrence of symptoms accompanied by an increase in the partial Mayo score ≥2 and/or requiring a change in therapy.
Patients who satisfied the inclusion criteria undergo blood tests, including C-reactive protein (CRP) (normal upper limit 5 mg/L) and a total colonoscopy with multiple biopsies at baseline. They are then randomized 1:1 to receive either 2 g daily of EPA-FFA (2×500 mg gastro-resistant sustained-release capsules, twice-daily) or 2 g of placebo (2×500 mg gastro-resistant sustained-release capsules of capric and caprylic acids that are triglycerides of the fractionated plant fatty acids, twice-daily) for a 6-month period. The entire study team are blinded to the treatment assignment.

fecal calprotectin (FC) = experiment: Double-blind, randomized, placebo-controlled study in UC patients: fecal calprotectin level (ELISA, Calprest); format: in vivo, human; details: over a six month period of administering highly purified EPA-FFA
Experimental: as §1, with “therapy. […]” for “therapy.”
The primary endpoint is the proportion of patients achieving a 100-point reduction (100 μg/g or greater) from baseline in FC level at 6 months. […] A combined endpoint consisting of the number of patients achieving the primary and secondary endpoints is also calculated. […]
A fecal sample from the first bowel movement in the morning is stored in a refrigerator at 2-8° C. for a maximum of 24 h before performing the analysis. Quantification of FC levels is carried out using a quantitative, enzyme-linked immunosorbent assay (Calprest; Eurospital, Trieste, Italy), according to the manufacturers' instructions. […]

In the case of `CC/C=C\C/C=C\C/C=C\C/C=C\C/C=C\CCCC(=O)O` [EPA-FFA, eicosapentaenoic acid], the “incorporation of EPA into plasma phospholipids and red blood cell membranes” value ([1]; 2 g daily for 8 weeks, patients with IBD and healthy volunteers) is listed as “consistently incorporated into plasma phospholipids and red blood cell membranes”, the metabolic conversion [1] is listed as “quickly converted into docosahexaenoic acid via docosapentaenoic acid” and the serious adverse events [2] is listed as “no serious adverse events”. The “reduction of FC” value (fecal calprotectin (FC)) was “at least 100 μg/g”.
